How the values were obtained:
[1] = system: 5/6 nephrectomy rat model of CKD; assay: 5/6 nephrectomy rat model of CKD; type: in vivo; settings: PD173074 1 mg/kg/day i.p. 14 days
Description: FGFR activity is required for the development of LVH in a rat model of CKD Since the cardiac effects of FGF23 are mediated by FGFR activation and could be blocked in vitro by the FGFR inhibitor PD173074, we tested the hypothesis that PD173074 could also attenuate LVH in the 5/6 nephrectomy rat model of CKD, which is known to develop increased FGF23 levels, severe hypertension, and LVH. We performed 5/6 nephrectomy in male Sprague Dawley rats using standard surgical techniques, and administered by intra-peritoneal injection either 1 mg/kg body weight/day of PD173074 dissolved in PBS (n=6) or vehicle alone (n=6) beginning one hour after surgery and continued daily for 14 days (FIG. 7). As a negative control, 6 rats underwent sham nephrectomy. At day 14 after surgery, we measured blood pressure, performed echocardiograms, collected blood for laboratory testing, sacrificed the animals and examined their hearts. […] Compared with vehicle, PD 173074 treatment led to decreased left ventricular mass, reduced ratio of heart weight to total body weight, decreased left ventricular wall thickness and relative wall thickness, decreased cross-sectional surface area of individual cardiac myocytes, and increased left ventricular end diastolic volume and ejection fraction (FIG. 7A-C). […]
Kidney disease was induced in Sprague Dawley rats using the 5/6 nephrectomy method (Di Marco et al., 2014). Rats were randomized to 3 groups of 6 animals each: sham nephrectomy, or 5/6 nephrectomy plus intra-peritoneal injections of vehicle (PBS) or anti-FGFR4 blocking antibody (human monoclonal, U3-11; U3Pharma) at 25 mg/kg/day every 3 days beginning one hour after surgery. High-resolution echocardiography (15 MHz) was performed at 14 days after surgery to assess LV mass, wall and chamber dimensions, and systolic and diastolic function using an HDI 5000 Ultrasound system (Philips, Best, The Netherlands). M-mode, 2D and 3D recordings were obtained under general anesthesia delivered through a nose mask while heart rate and body temperature were maintained. Blood pressure was measured in conscious rats using a computerized rat-tail cuff technique (CODA, Kent Scientific Corporation). On day 14, animals were sacrificed and the hearts were isolated and prepared for histological and serological analyses.
Short-axis heart sections were stained with hematoxylin and eosin (VWR) and used to quantify myocardial thickness by measuring the distance from the inner to the outer myocardial edges at the mid-chamber zone. Mean left ventricular free wall thickness was calculated from seven measurements of wall thickness taken at 0, 30, 60, 90, 120, 150 and 180 degrees along the hemi-circle of the short axis of the free wall. Images were taken on a Nikon SMZ 1500 microscope using 0.75× magnification.
We measured cross-sectional area of individual cardiac myocytes in paraffin-embedded short-axis sections of mouse and rat hearts. Briefly, 7 μm thick sections were deparaffinized according to our established protocols (Faul et al., 2011). To visualize cellular borders, fixed tissue was incubated with wheat germ agglutinin (WGA) conjugated to Alexa Fluor555 (Invitrogen) at 1 mg/ml in PBS containing 10 mM sodium azide. Immunofluorescence images were taken on a Leica TCS-SP5 confocal microscope with a 63× oil objective. Leica AF6000 fluorescence software was used to quantify cross-sectional area of 25 cells per field at four fields along the mid-chamber free wall based on WGA-positive staining.
Short-axis cardiac sections from mice and rats were stained with Picrosirius Red (Sigma-Aldrich) and used to quantify myocardial fibrosis. Sections were deparaffinized, counterstained with hematoxylin (VWR) and incubated in Picrosirius Red solution for 60 minutes. After washing in acidified water, sections were dehydrated in ascending ethanol series and mounted in non-aqueous mounting media. […]

[2] = In vivo biological activity of FGF23 (serum phosphate); parameters: species or system rat; settings: Sprague-Dawley rats, single i.v. 40 μg/kg, over 4 hours
Description: We used recombinant mouse FGF23 (6His-tagged Tyr25-Val251 (Arg179Gln)), FGF2 (Ala11-Ser154), and FGF4 (Ala30-Leu202) proteins (R&D Systems). We chose the mutant form of FGF23 because it is resistant to furin protease-mediated degradation, which prolongs the protein's half-life.
We used recombinant mouse FGF23 (6His-tagged Tyr25-Val251 [Arg179Gln]; 26.1 kDa), and FGF2 (Ala11-Ser154; 16.2 kDa) (R&D Systems) as before (Faul et al., 2011).

Row | Molecule | 5/6 nephrectomy-induced increased cardiac β-MHC and ANP and decreased MCAD mRNA [1] | blood pressure vs vehicle [1] | renal function and serum FGF23 levels vs vehicle [1] | LVH ([1]; vs vehicle) | cross-sectional surface area of individual cardiac myocytes ([1]; vs vehicle) | left ventricular end diastolic volume and ejection fraction ([1]; vs vehicle) | left ventricular mass ([1]; vs vehicle) | left ventricular wall thickness and relative wall thickness ([1]; vs vehicle) | ratio of heart weight to total body weight ([1]; vs vehicle) | hepatic expression of p-ERK protein levels ([1]; vs sham and 5/6 nephrectomized rats) | serum phosphate levels [2]
1 | CCN(CC)CCCCNc1ncc2cc(-c3cc(OC)cc(OC)c3)c(NC(=O)NC(C)(C)C)nc2n1 [PD173074] | not observed | no difference was detected | no differences | significantly attenuated | decreased | increased | decreased | decreased | reduced | decreased | 
2 | FGF23: recombinant mouse FGF23, 6His-tagged Tyr25-Val251 (Arg179Gln) (R&D Systems) (protein, left off: small tags and cut ends) YPDTSPLLGSNWGSLTHLYTATARTSYHLQIHRDGHVDGTPHQTIYSALMITSEDAGSVVITGAMTRRFLCMDLHGNIFGSLHFSPENCKFRQWTLENGYDVYLSQKHHYLVSLGRAKRIFQPGTNPPPFSQFLARRNEVPLLHFYTVRPRRHTQSAEDPPERDPLNVLKPRPRATPVPVSCSRELPSAEEGGPAASDPLGVLRRGRGDARGGAGGADRCRPFPRFV |  |  |  |  |  |  |  |  |  |  | significantly decreased

Reference: patent US20160039936A1, “FIBROBLAST GROWTH FACTOR RECEPTOR INHIBITION FOR THE TREATMENT OF DISEASE” (UNIVERSITY OF MIAMI, priority 2011, published 2016)
